The nature of data set [1]: Drug uptake in wild type CF1 mouse plasma at 30 mg/kg, po after 4 hrs. Set-up: dose 30 mg/kg, route oral. Format: ADME, organism-based.
For data set [2], the system named is Mus musculus. Briefly: Inhibition of gamma-secretase-mediated cleavage of APP in wild type CF1 mouse brain assessed as inhibition of amyloid beta42 production at 30 mg/kg, po after 4 hrs by ELISA. Format: functional. Particulars: for inhibition in vivo at 30 mg/kg: Mus musculus, CF1, Brain, po, 4 h.
A short description of data set [3]: Drug uptake in wild type CF1 mouse brain at 30 mg/kg, po after 4 hrs. Format: ADME, organism-based. Particulars: read-out: Drug uptake. On the set-up: dose 30 mg/kg, route oral.
A short description of data set [4]: Modulation of gamma-secretase expressed in CHO cells co-expressing APP V717F mutant assessed as reduction in amyloid beta42 production after 17 hrs by ELISA. Type of data set: cell-based.
Data set [5] is described as follows: Modulation of gamma-secretase-mediated cleavage of APP assessed as reduction in amyloid beta42 production.
Data set [6] has as its system Mus musculus. Briefly: Inhibition of gamma-secretase-mediated cleavage of APP in wild type CF1 mouse brain assessed as inhibition of amyloid beta42 production at 12.5 mg/kg, po after 4 hrs by ELISA. Particulars: 12.5 mg/kg. Type of data set: functional.
The next data set deals with Brain. Put plainly: Drug uptake in rat brain at 30 mg/kg, po after 4 hrs. Particulars: in vivo.
The next data set has as its system Rattus norvegicus. Briefly: Inhibition of gamma-secretase-mediated cleavage of APP in rat brain assessed as inhibition of amyloid beta42 production at 30 mg/kg, po after 4 hrs by ELISA.
The nature of data set [7]: Drug uptake in wild type CF1 mouse brain at 50 mg/kg, po after 4 hrs. Format: ADME, organism-based. Set-up: dose 50 mg/kg, route oral. The note with it: read-out: Drug uptake.
For data set [8], the system named is Mus musculus. Briefly: Inhibition of gamma-secretase-mediated cleavage of APP in wild type CF1 mouse brain assessed as inhibition of amyloid beta42 production at 50 mg/kg, po after 4 hrs by ELISA. Type of data set: functional. In general terms: In an ELISA, binding on a coated surface is turned into a signal by an enzyme label.
The next data set deals with Nucleic Acid. Briefly: Ratio of drug level in brain in wild type CF1 mouse to EC50 for gamma-secretase expressed in CHO cells. Format: cell-based.
In a further data set the test system is MC-IXC/H4. Briefly: Inhibition of Notch intracellular domain in human MC-IXC/H4 cells assessed as reduction in HES1 protein expression at 10 uM after 24 hrs Western blotting. Format: cell-based.
Data set [9] deals with CHO. Briefly: Modulation of gamma-secretase expressed in CHO cells co-expressing APP V717F mutant assessed as increase in amyloid beta38 secretion after 17 hrs by ELISA. Type of data set: cell-based.
Data set [10] has as its system CHO. Briefly: Modulation of gamma-secretase expressed in CHO cells co-expressing APP V717F mutant assessed as effect on amyloid beta40 production after 17 hrs by ELISA. Format: cell-based.
Data set [11] can be described thus: Drug uptake in wild type CF1 mouse plasma at 50 mg/kg, po after 4 hrs. Set-up: dose 50 mg/kg, route oral. Format: ADME, organism-based.

The text below walks through data of ChEMBL document CHEMBL1926647, “Discovery of 4-aminomethylphenylacetic acids as γ-secretase modulators via a scaffold design approach” (Bioorg Med Chem Lett, 2011).

Calls of active or inactive are those of the source. The calls are words filed in the database; no cut-off is given here. Where only a bound is given, the exact number is not on record here.

With `CC(C)CCC(c1ccc(C(CC(C)C)C(=O)O)cc1-c1ccc(C(F)(F)F)cc1)N1CCC(C(F)(F)F)CC1` (configuration not stated), the results for the concentration at 4 h in data set [1] and in [3] were 14 µM and 4 µM, respectively. In addition, the inhibition in vivo at 30 mg/kg with Mus musculus [2] turned out to be 21%. The 50% effective concentration (EC50) in data set [4] was 210 nM.

`CC(C)CCC(NC1CCC(C(C)(C)C)CC1)c1ccc(CC(=O)O)cc1-c1ccc(C(F)(F)F)cc1` (configuration not stated): the concentration for a half-maximal effect (EC50) in [4] came to 450 nM.

For `CC(C)CCN(Cc1ccc(C(=O)O)cc1-c1ccc(C(F)(F)F)cc1)c1ccc(C(F)(F)F)cc1`, the EC50 in [4] amounted to 5400 nM.

With `O=C(O)C1(c2ccc(-c3ccc(Cl)c(Cl)c3)c(F)c2)CC1`, in [5], the EC50 was 40000 nM.

Consider `CC(C)(C)CC(c1ccc(CC(=O)O)cc1-c1ccc(C(F)(F)F)cc1)N1CCC(C(F)(F)F)CC1` (single isomer, unassigned; enantiomer 1), for which the “inhibition (INH)” value with Mus musculus [2] (30 mg/kg) was 25%. Also, in data set [4], the IC50 came out at 700 nM.

Regarding `CC(C)CCC(c1ccc(CC(=O)O)cc1-c1ccc(C(F)(F)F)cc1)N1CC[C@H](F)C1` (some centres not stated), the EC50 in [4] is 5900 nM.

Turning to `CC(C)CCN(Cc1ccc(CC(=O)O)cc1-c1ccc(F)cc1)[C@H]1CC[C@H](C(C)(C)C)CC1`, the EC50 in [4] was 5600 nM.

As to `CC(C)(C)CC(c1ccc(CC(=O)O)cc1-c1ccc(C(F)(F)F)cc1)N1CCC(C(F)(F)F)CC1` (single isomer, unassigned; enantiomer 2) [listing 1 of 2 here], the “inhibition (INH)” value with Mus musculus [6] and with Rattus norvegicus was 30% each time. In the data set on Brain, this compound came in with a concentration of 26 µM.

Take `CC(C)CCN(Cc1ccc(CC(=O)O)cc1-c1ccc(C(F)(F)F)cc1)[C@H]1CC[C@H](C(C)(C)C)CC1`: the concentration at 4 h in data set [7] amounted to 7 µM. For the same compound, the EC50 in data set [4] worked out at 670 nM. Also, the inhibition in vivo at 50 mg/kg with Mus musculus [8] worked out at 24%. In the data set with Nucleic Acid, the Ratio amounted to 10.

As for `O=C(O)Cc1ccc(C(C2CCCCC2)N2CCC(C(F)(F)F)CC2)c(-c2ccc(C(F)(F)F)cc2)c1` (configuration not stated), the figures for the concentration at 4 h in data set [1] and in [3] were 23 µM and 10 µM, respectively. Moreover, in the data set with Mus musculus [2], the inhibition in vivo at 30 mg/kg came to 15%. For the same compound, the 50% effective concentration (EC50) in data set [4] was found to be 420 nM.

For `CC(C)CCC(c1ccc(CC(=O)O)cc1-c1ccc(C(F)(F)F)cc1)N1CCCC(C(F)(F)F)C1` (mixture of isomers), the concentration for a half-maximal effect (EC50) in data set [4] was found to be 520 nM.

As to `CC(C)(C)CC(c1ccc(CC(=O)O)cc1-c1ccc(C(F)(F)F)cc1)N1CCC(C(F)(F)F)CC1` (single isomer, unassigned; enantiomer 2) [listing 2 of 2 here], the inhibition entry with MC-IXC/H4 is “inactive”.

Consider `CC(C)CCN(Cc1ccc(CC(=O)O)cc1-c1ccc(C(F)(F)F)cc1)c1ccc(C(F)(F)F)cc1`, for which the result with CHO [9] was Active. Further, in the data set with CHO [10], the result was inactive. In addition, the concentration at 4 h was 0.6 µM in data set [7] and 15 µM in data set [11]. Moreover, the 50% effective concentration (EC50) in [4] worked out at 1500 nM. In addition, the inhibition entry in the data set with Mus musculus [8] was “inactive”.

As for `O=C(O)Cc1ccc(CN2CCC(C(F)(F)F)CC2)c(-c2ccc(C(F)(F)F)cc2)c1`, the concentration for a half-maximal effect (EC50) in data set [4] is greater than 10000 nM.

As for `O=C(O)Cc1ccc(C(CCC(F)(F)F)N2CCC(C(F)(F)F)CC2)c(-c2ccc(C(F)(F)F)cc2)c1` (configuration not stated), in data set [4], the concentration giving a half-maximal response (EC50) was found to be 1400 nM.

The inhibition in vivo is the change of the read-out against control, counted positive when it falls. Usually EC50 stands for the concentration needed to bring the measured effect to its halfway point. Usually IC50 stands for the concentration that gives 50% inhibition.
